Assay results: paper PMC5706701, “Development of a homogenous high-throughput assay for inositol hexakisphosphate kinase 1 activity” (PLoS ONE, 2017)
Structures can show the parent of a compound that is named as a salt. Where two headings read alike, the source gives them in different places.

Molecular target: T1, Human IP6K1 (Homo sapiens, UniProt Q92551)
T1 construct: GST (N, cleaved yes); made in house; host or cells: C43 E. coli, pGEX-6P-2
Test: IP6K1 high-throughput screen of the Sigma LOPAC (ADP-Glo Max, single point);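 note: final compound concentration 10µM in 5% DMSO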
Format: biochemical

[1] = LOPAC single-point screen, ADP-Glo Max luminescence raw signal per well
[2] = LOPAC single-point screen, Z-score relative to plate average and StDev
[3] = LOPAC single-point screen, Z-score from plate average and StDev
[4] = LOPAC single-point screen, ADP-Glo Max raw signal per well
[5] = LOPAC single-point screen, Z-score against plate average and StDev
[6] = Sigma LOPAC single-point screen, ADP-Glo Max raw signal per well
[7] = Sigma LOPAC single-point screen, Z-score from plate average and StDev
[8] = LOPAC single-point screen, Z-score from raw signal with plate average and StDev

T1 sequence (Q92551 whole entry): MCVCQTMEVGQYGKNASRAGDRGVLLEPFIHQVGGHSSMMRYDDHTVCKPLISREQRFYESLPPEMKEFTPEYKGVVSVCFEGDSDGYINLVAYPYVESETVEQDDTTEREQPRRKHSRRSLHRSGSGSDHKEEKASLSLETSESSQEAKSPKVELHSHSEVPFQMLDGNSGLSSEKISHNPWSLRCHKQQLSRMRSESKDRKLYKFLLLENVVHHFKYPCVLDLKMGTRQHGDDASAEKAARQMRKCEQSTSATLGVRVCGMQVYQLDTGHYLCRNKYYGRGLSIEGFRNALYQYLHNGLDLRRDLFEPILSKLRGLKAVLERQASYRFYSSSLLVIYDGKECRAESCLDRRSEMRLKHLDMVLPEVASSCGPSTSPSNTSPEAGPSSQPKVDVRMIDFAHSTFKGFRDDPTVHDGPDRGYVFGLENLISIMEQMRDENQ

Compound: N#C/C(=C\c1ccc(O)c(O)c1)C(N)=S [Tyrphostin 47]
- Raw Signal [1]: 42103
- Z-score [2]: -2.705

Compound: O=C(O)[C@@H]1C[C@H](C(=O)O)N1 [cis-Azetidine-2,4-dicarboxylic acid]
- Raw Signal [1]: 69033
- Z-score [3]: 1.959

Compound: COc1cc(C(O)CN)ccc1O.Cl (racemic) [(±)-Normetanephrine hydrochloride]
- Raw Signal [4]: 54540
- Z-score [5]: 0.02461

Compound: CCCCCCCCCCCCCCCCCC(=O)NCC(COP(=O)([O-])OCC[N+](C)(C)C)OCC (racemic)
- Raw Signal [1]: 62966
- Z-score [3]: 1.584

Compound: Oc1ccc(O)cc1 [Hydroquinone]
- Raw Signal [6]: 59753
- Z-score [7]: 0.9314

Compound: CCCC(CCC)C(=O)O [Valproic acid sodium]
- Raw Signal [1]: 64941
- Z-score [3]: 1.772

Compound: CN1CCN2c3ccccc3Cc3ccccc3C2C1 (stereo not drawn) [Mianserin hydrochloride]
- Raw Signal [1]: 51451
- Z-score [2]: -0.4944

Compound: Cc1cnc(C(=O)NCCc2ccc(S(=O)(=O)NC(=O)NC3CCCCC3)cc2)cn1 [Glipizide]
- Raw Signal [6]: 60018
- Z-score [7]: 0.9852

Compound: O=C1OC(=O)[C@H]2[C@@H]1[C@@H]1CC[C@H]2O1 [Norcantharidin]
- Raw Signal [4]: 52142
- Z-score [8]: -0.3783

Compound: NC12CC3CC(CC(C3)C1)C2 [Amantadine hydrochloride]
- Raw Signal [1]: 68782
- Z-score [3]: 1.914

Compound: COc1cc(OC)cc(C(CNc2ncnc3c2ncn3[C@@H]2O[C@H](CO)[C@@H](O)[C@H]2O)c2ccccc2C)c1 (stereo partly drawn) [DPMA]
- Raw Signal [4]: 54367
- Z-score [8]: -0.1625

Compound: Cl.NCCc1ccc(O)cc1 [4-Hydroxyphenethylamine hydrochloride]
- Raw Signal [4]: 54724
- Z-score [8]: -0.2525

Compound: C[C@]12CC[C@@H](O)C[C@@H]1CC[C@@H]1[C@@H]2CC[C@]2(C)C(=O)CC[C@@H]12 [Androsterone]
- Raw Signal: 54396
- Z-score: -0.6195

Compound: NCCCCN [Putrescine dihydrochloride]
- Raw Signal [4]: 56490
- Z-score [5]: 0.09057

Compound: CNCC[C@@H](Oc1ccccc1C)c1ccccc1 [Tomoxetine]
- Raw Signal [6]: 58582
- Z-score [7]: 0.497

Compound: Oc1cc(-c2ccccc2)nc2nc(Cl)ccc12
- Raw Signal [4]: 57826
- Z-score [5]: -0.01534

Compound: CN1C(=O)CCS(=O)(=O)C1c1ccc(Cl)cc1 (stereo not drawn) [Chlormezanone]
- Raw Signal [1]: 52438
- Z-score [2]: -0.5542

Compound: Adenosine 3 ,5 -cyclic monophosphate
- Raw Signal: 66195
- Z-score: 1.459

Compound: CO/N=C(\C(=O)N[C@@H]1C(=O)N2C(C(=O)O)=C(CSc3nc(=O)c(=O)[nH]n3C)CS[C@H]12)c1csc(N)n1 [Ceftriaxone sodium]
- Raw Signal [4]: 55787
- Z-score [8]: -0.3745

Compound: CCCN(CCC)CCc1cccc2c1CC(=O)N2 [Ropinirole hydrochloride]
- Raw Signal [4]: 53968
- Z-score [8]: -0.3994

Compound: CC(C)c1ccc2c(c1)c(SC(C)(C)C)c(CC(C)(C)C(=O)O)n2Cc1ccc(Cl)cc1 [MK-886]
- Raw Signal [4]: 53257
- Z-score [8]: -0.191

Compound: CN(C)c1nc(N)c(C(=O)NC(=N)N)nc1Cl [5-(N,N-Dimethyl)amiloride hydrochloride]
- Raw Signal [4]: 56769
- Z-score [8]: -0.2015

Compound: CC(Oc1ccc(Oc2cnc3ccc(Cl)cc3n2)cc1)C(=O)O (stereo not drawn) [XK469]
- Raw Signal [4]: 55038
- Z-score [8]: -0.1915

Compound: S(-)-UH-301 hydrochloride
- Raw Signal [4]: 55198
- Z-score [8]: -0.1604

Compound: O=C(O)C1CCCNC1 (racemic) [(±)-Nipecotic acid]
- Raw Signal [6]: 63719
- Z-score [7]: 1.023

Compound: NC(=O)c1ccccc1 [Benzamide]
- Raw Signal [1]: 54873
- Z-score [2]: -0.5354

Compound: Cc1scc2c1N(C(=O)CN1CCN(C)CC1)c1ccccc1NC2=O [Telenzepine dihydrochloride]
- Raw Signal [6]: 58050
- Z-score [7]: 0.3937

Compound: Nc1ncnc2c1ncn2[C@@H]1O[C@H](COP(=O)(O)CP(=O)(O)OP(=O)([O-])[O-])[C@@H](O)[C@H]1O.[Li+].[Li+]
- Raw Signal [1]: 51012
- Z-score [2]: -0.5682

Compound: N.N.[Cl][Pt][Cl] [Cisplatin]
- Raw Signal [1]: 49642
- Z-score [2]: -0.7984

Compound: NC(Cc1ccc(Cl)cc1)C(=O)O (racemic) [(±)-p-Chlorophenylalanine]
- Raw Signal [1]: 55203
- Z-score [2]: -0.4773

Compound: Cc1ccc(O)c(N=Nc2ccccc2)n1 [SIB 1757]
- Raw Signal [1]: 46352
- Z-score [2]: -1.879

Compound: CC(=O)O[C@H]1C[C@@]2(C)[C@@H](C[C@@H](O)[C@H]3[C@@]4(C)CC[C@@H](O)[C@@H](C)[C@@H]4CC[C@@]32C)/C1=C(\CCC=C(C)C)C(=O)[O-].[Na+] [Fusidic acid sodium]
- Raw Signal [4]: 56091
- Z-score [5]: 0.1876

Compound: C[N+](C)(C)CCOC(=O)CCC(=O)OCC[N+](C)(C)C [Succinylcholine chloride]
- Raw Signal [1]: 51489
- Z-score [2]: -0.881

Compound: C/C(=C\c1ccc(C(=O)O)cc1)c1ccc2c(c1)C(C)(C)CCC2(C)C [TTNPB]
- Raw Signal [4]: 53849
- Z-score [8]: -0.4225

Compound: Cc1ncc(CNC(=O)N(CCCl)N=O)c(N)n1 [Nimustine hydrochloride]
- Raw Signal [4]: 54692
- Z-score [5]: 0.05015

Compound: Cl.NCCS [Cysteamine hydrochloride]
- Raw Signal [1]: 49886
- Z-score [2]: -0.7574

Compound: Cc1nc(-c2ccc(-c3ccc(C(=O)N4CCc5cc6c(cc54)C4(CCN(C)CC4)CO6)cc3)c(C)c2)no1.Cl [SB 224289 hydrochloride]
- Raw Signal [6]: 58823
- Z-score [7]: 0.5438

Compound: NC(=O)COc1c(F)cc(SCCNS(=O)(=O)c2ccccc2)cc1F
- Raw Signal [4]: 52796
- Z-score [8]: -0.2684

Compound: NCC1(CC(=O)O)CCCCC1 [Gabapentin]
- Raw Signal [1]: 51688
- Z-score [2]: -0.7066

Compound: Cn1c(=O)c2c(ncn2C)n(C)c1=O [Caffeine]
- Raw Signal [4]: 57928
- Z-score [5]: 0.002624

Compound: CC(=N)NCCCC[C@H](N)C(=O)O.Cl [L-N6-(1-Iminoethyl)lysine hydrochloride]
- Raw Signal [4]: 52153
- Z-score [8]: -0.3765

Compound: CCCn1c(=O)c2[nH]c(-c3ccc(OCC(=O)NCCN)cc3)nc2n(CCC)c1=O [Xanthine amine congener]
- Raw Signal [6]: 61437
- Z-score [7]: 1.052

Compound: Oligomycin A
- Raw Signal [4]: 55071
- Z-score [5]: 0.1138

Compound: N.N.O=C([O-])C1(C(=O)[O-])CCC1.[Pt+2] [Carboplatin]
- Raw Signal [1]: 53949
- Z-score [2]: -0.6982

Compound: Cc1ccc(Cl)c(Nc2ccccc2C(=O)O)c1Cl [Meclofenamic acid sodium]
- Raw Signal [6]: 59966
- Z-score [7]: 0.9363

Compound: O=C(O)CCC/C=C\C[C@@H]1[C@@H](/C=C/[C@H](O)C2Cc3ccccc3C2)[C@@H](F)C[C@@H]1O [AL-8810]
- Raw Signal [1]: 53863
- Z-score [2]: -0.7133

Compound: Cc1ccccc1N1C(=O)c2cc(S(N)(=O)=O)c(Cl)cc2NC1C (stereo not drawn) [Metolazone]
- Raw Signal [4]: 54501
- Z-score [5]: 0.01806

Compound: Cc1cccc(/C=C/c2ccccc2)n1 [SIB 1893]
- Raw Signal [4]: 55669
- Z-score [5]: -0.06893

Compound: CC[N+](C)(CC)CC(=O)Nc1c(C)cccc1C.[Cl-] [Lidocaine N-methyl hydrochloride]
- Raw Signal [1]: 51540
- Z-score [2]: -0.4795

Compound: N[C@@H](Cn1oc(=O)[nH]c1=O)C(=O)O [(+)-Quisqualic acid]
- Raw Signal [6]: 59992
- Z-score [7]: 0.7709

Compound: Nc1nc2[nH]c(=O)cnc2c(=O)[nH]1 [Isoxanthopterin]
- Raw Signal [6]: 59100
- Z-score [7]: 0.7908

Compound: CN(C)c1cc2c(Nc3ccc4c(cnn4Cc4ccccc4)c3)ncnc2cn1 [GW2974]
- Raw Signal [4]: 53289
- Z-score [8]: -0.3814

Compound: MDL 26,630 trihydrochloride
- Raw Signal [4]: 53612
- Z-score [8]: -0.1313

Compound: CCOC(=O)c1ncn2c1[C@@H]1CCCN1C(=O)c1cc(OC)ccc1-2 [L-655,708]
- Raw Signal [4]: 54093
- Z-score [5]: -0.05049

Compound: NC(=NCc1ccccc1)NC(=O)c1nc(Cl)c(N)nc1N [Benzamil hydrochloride]
- Raw Signal [4]: 59018
- Z-score [5]: 0.1946

Compound: NC1CCN(O)C1=O (racemic) [(±)-HA-966]
- Raw Signal [4]: 57782
- Z-score [5]: -0.02309

Compound: CN1C[C@H](CNC(=O)OCc2ccccc2)C[C@@H]2c3cccc4c3c(cn4C)C[C@H]21 [Metergoline]
- Raw Signal [1]: 65696
- Z-score [3]: 1.899

Compound: CCN1CCc2nc(N)oc2CC1.Cl.Cl [B-HT 933 dihydrochloride]
- Raw Signal [4]: 56378
- Z-score [8]: -0.2704

Compound: CC1COc2c(N3CCN(C)CC3)c(F)cc3c(=O)c(C(=O)O)cn1c23 (stereo not drawn) [Ofloxacin]
- Raw Signal [4]: 52269
- Z-score [8]: -0.357

Compound: CC1(C)CCC(NC(=O)[C@@H](N)CCC(=O)O)CC1 [CR 2249]
- Raw Signal [4]: 52015
- Z-score [8]: -0.3997

Compound: S-Nitroso-N-acetylpenicillamine
- Raw Signal [4]: 52205
- Z-score [8]: -0.3677

Compound: COC(=O)C(C)(N)Cc1ccc(O)cc1.Cl (racemic)
- Raw Signal [4]: 52897
- Z-score [8]: -0.2515

Compound: O=C(O)/C=C\C(=O)O.O=C(O)/C=C\C(=O)O.c1cc(CN2CCCCC2)cc(OCCCNc2nc3ccccc3s2)c1 [SKF 95282 dimaleate]
- Raw Signal [4]: 54088
- Z-score [8]: -0.3761

Compound: C[C@H](N)CN1CCc2ccc(Br)cc21.C[C@H](N)CN1CCc2ccc(Br)cc21.O=C(O)/C=C/C(=O)O [VER-3323 hemifumarate salt]
- Raw Signal [6]: 59728
- Z-score [7]: 0.8963

Compound: Cc1ccc(OCC(O)C(C)NC(C)C)c2c1CCC2.Cl (stereo not drawn) [ICI 118,551 hydrochloride]
- Raw Signal [6]: 57174
- Z-score [7]: 0.4672

Compound: C[C@]12CC[C@@H]3c4ccc(O)cc4CC[C@H]3[C@@H]1CC[C@@H]2O [beta-Estradiol]
- Raw Signal [1]: 51790
- Z-score [2]: -0.6858
